The text below walks through data of patent US20090226398A1, “ANTI-VIRAL COMPOUNDS, COMPOSITIONS, AND METHODS OF USE” (Genelabs Technologies, Inc., priority 2008, published 2009).

This assay has as its system HCV replication. Kind of assay: Replicon Assay (Huh-lucubineo-ET cells, luciferase readout). The assay is classed as cell-based. To be noted: Hepatitis C virus; ET (Huh-lucubineo-ET) HCV replicon cell line; luciferase activity 48-72 hours after compound addition; 6 dilutions. The procedure, abridged: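 Huh-lucubineo-ET cells stably carrying a firefly luciferase-ubiquitin-neo/NS3-5B ET replicon (adaptive mutations E1202G, T1280I, K1846T) were plated 24 h before compound, then treated at 5 or 50 μM or six 3-fold dilutions. Luciferase read 48-72 h later; % inhibition vs no-compound control, EC50/TC50 from Hill-equation fit.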
On the technique in general: Replicon systems follow genome replication, usually without infectious particles.
For orientation: EC50 means the concentration that produces a half-maximal response. A low value points to greater potency. Compound `COc1ccc(-c2ccc(Cn3cc4nc(-c5cccc(F)c5F)nc-4cn3)nc2N)c(C(F)(F)F)c1` [Compound 358, 6-[2-(2,3-Difluoro-phenyl)-imidazo[4,5-d]pyridazin-5-ylmethyl]-3-(4-methoxy-2-trifluoromethyl-phenyl)-pyridin-2-ylamine] showed an EC50 of 291 nM.
`COc1ccc(-c2ccc(Cn3cc4nc(-c5cccc(F)c5F)nc-4cn3)nc2O)c(C(F)(F)F)c1` [Compound 359, 6-[2-(2,3-Difluoro-phenyl)-imidazo[4,5-d]pyridazin-5-ylmethyl]-3-(4-methoxy-2-trifluoromethyl-phenyl)-pyridin-2-ol] displayed an EC50 of 2230 nM. This EC50 lies about 7.7-fold higher than the previous one.
Compound `Nc1nc(-c2ccc(C(F)(F)F)cc2C(F)(F)F)ccc1Cn1cc2nc(-c3cccc(F)c3F)nc-2cn1` [Compound 360, 6-(2,4-Bis-trifluoromethyl-phenyl)-3-[2-(2,3-difluoro-phenyl)-imidazo[4,5-d]pyridazin-5-ylmethyl]-pyridin-2-ylamine] yielded an EC50 of 11 nM. Compared with the last compound, the EC50 is about 200-fold lower.
The compound `Oc1nc(-c2ccc(C(F)(F)F)cc2C(F)(F)F)ccc1Cn1cc2nc(-c3cccc(F)c3F)nc-2cn1` [Compound 361, 6-(2,4-Bis-trifluoromethyl-phenyl)-3-[2-(2,3-difluoro-phenyl)-imidazo[4,5-d]pyridazin-5-ylmethyl]-pyridin-2-ol] displayed an EC50 of 13700 nM.
Then `CCCOc1ccc(-c2ncc(Cn3cc4nc(-c5ccccc5F)nc-4cn3)cn2)c(C(F)(F)F)c1` [Compound 362, 2-(2-Fluoro-phenyl)-5-[2-(4-propoxy-2-trifluoromethyl-phenyl)-pyrimidin-5-ylmethyl]-5H-imidazo[4,5-d]pyridazine], with 19 nM; and `CCCOc1ccc(-c2ncc(Cn3cc4nc(-c5cccc(F)c5F)nc-4cn3)cn2)c(C(F)(F)F)c1` [Compound 363, 2-(2,3-Difluoro-phenyl)-5-[2-(4-propoxy-2-trifluoromethyl-phenyl)-pyrimidin-5-ylmethyl]-5H-imidazo[4,5-d]pyridazine], with 5 nM; and `Nc1ccc(-c2ccc(Cn3cc4nc(-c5cccc(F)c5F)nc-4cn3)cn2)c(C(F)(F)F)c1` [Compound 364, 4-{5-[2-(2,3-Difluoro-phenyl)-imidazo[4,5-d]pyridazin-5-ylmethyl]-pyridin-2-yl}-3-trifluoromethyl-phenylamine], with not below 50000 nM.
`Cc1ccc(-c2ccc(Cn3cc4nc(-c5cccc(F)c5F)nc-4cn3)cn2)c(C(F)(F)F)c1` [Compound 376, 2-(2,3-Difluoro-phenyl)-5-[6-(4-methyl-2-trifluoromethyl-phenyl)-pyridin-3-ylmethyl]-5H-imidazo[4,5-d]pyridazine] came in with a 50% effective concentration (EC50) of 131 nM.
